Read-outs that look alike come from different tables or passages of the source.
Key:
[1] = system: swine class I promoter (PD1); assay: Transient transfection CAT assay, class I promoter chimeras in FRTL-5 cells; assay type: cell-based; details: 6H medium; for inhibition at 10 µM / inhibition at 25 µM / inhibition at 100 µM / inhibition at 1000 µM / inhibition at 5000 µM: Sus scrofa, FRTL-5
From the text: The full length PD1 promoter, PD1 CAT construct pH […], inserted into the multicloning site of pSV3CAT, has been previously described (Erhlich, R. et al. Immunogenetics 30:18-26 (1989)). […] The deletion series was also cloned into the pSV3CAT reporter construct to assess promoter activities (Weisman J D, et al. ibid (1991); Maguire, J. et al., Mol. Cell. Biol., 12:3078-3086 (1992)). […] The number denotes the most 5′-residue in the 5′-flanking region of the PD1 promoter.
FRTL-5 rat thyroid cells (Interthyr Research Foundation, Baltimore, Md.; ATCC CRL8305) were the same subclone (F1) used in the gel shift experiments described earlier. They were grown in the following medium: Coon's modified F-12 medium containing 5% heat-treated, mycoplasma-free calf serum, 1 mM nonessential amino acids, and a mixture of six hormones (6H) containing bovine TSH (1×10^−10M), insulin (10 μg/ml), cortisol (0.4 ng/ml), transferrin (5 μg/ml), glycyl-L-histidyl-L-lysine acetate (10 ng/ml), and somatostatin (10 ng/ml). Cells were diploid and between their 5th and 25th passage. Fresh medium was added every 2 or 3 days and cells were passaged every 7-10 days. In some experiments, cells were grown to near confluency in 6H medium then maintained for 5-8 days, before experiments were initiated, in 5H medium with no TSH.
To measure the promoter activity of MHC class I promoter constructs, as reported by CAT activity, two procedures were used. In one, rat FRTL-5 thyroid cells were transfected by the electroporation method described previously (Saji, M., et al., ibid (1992b); Giuliani, C., et al., ibid (1995); Saji, M., et al., ibid (1997)). In brief, FRTL-5 cells were grown to 80% confluence, put in fresh 6H medium containing 5% calf serum for 12 hours, harvested, washed and suspended at 1.5×10^7 cells/mil in 0.8 ml electroporation buffer (272 mM sucrose, 7 mM sodium phosphate at pH 7.4, and 1 mM MgCl2). Twenty μg of the full-length CAT construct were added with 5 μg pSVGH. Cells were then pulsed (330 volts, capacitance 25 μfarad), plated (approximately 6×10^6 cell/dish), and cultured for 12 hours in 6H medium containing 5% calf serum. […] After 48 hours they were harvested. […] Medium was taken for hGH radioimmunoassay to monitor transfection efficiency (Nichols Institute, San Juan Capistrano, Calif.) and cells were harvested for CAT assays which used 20-50 μg cell lysate in a final volume of 130 μl. Incubation was at 37° C. for 2 or 4 hours; acetylated chloramphenicol was separated by thin layer chromatograpy (TLC) and positive spots on TLC plates were cut out and quantitated in a scintillation spectrometer. CAT activity was normalized to GH activity and/or cell protein before data were compared.
Alternatively transient transfections used the same class I-CAT chimeras and a DEAE-dextran procedure (Lopata M A, et al., Nucleic Acids Res. 12:5707-5717 (1984); Giuliani C, et al., ibid (1995)). Cells were grown to near (80%) confluency in 6H medium, shifted to 5H medium for 1 day, washed twice with Dulbecco's modified phosphate buffered saline (DPBS), pH 7.4, and incubated 1 hour with 5 ml serum-free 5H medium containing the plasmid DNA plus 250 μg DEAE-dextran (5 Prime-3 Prime, Inc.). Cells were then exposed to 10% dimethylsulfoxide in DPBS for 3 min., washed twice in DPBS, cultured in 5H medium for 24 hours, then maintained therein another 48 hours with or without MMI, MMI derivatives or tautomeric cyclic thiones, as noted. Efficiency of transfection was determined by cotransfection as above or with 5 μg pRSVLuc (De Wet J R, et al., Mol. Cell. Biol. 7:725-737 (1987)).
In this experiment, FRTL-5 cells were grown to near confluency in 6H medium (plus TSH) and then were maintained in 5H medium (no TSH) for 7 days before being treated with γ-IFN or γ-IFN plus MMI for 40 hours. Control cells were those maintained in 5H medium for the same 40 hours. CAT activity was measured as described above.

[2] = system: MHC class I antigen expression; assay: Flow cytometry of IFN-increased class I antigen expression in FRTL-5 cells; assay type: cell-based, rat; details: 100 U/ml γ-interferon, 6H medium (TSH), 40 hours
Experimental: In this experiment 10^6 cells were incubated with MHC class II or MHC class I-specific antibodies as described (Montani, V., et al., ibid (1998b); Saji, M., et al., ibid (1992a); Balducci-Silano, P. L., et al., Endocrinology 139:2309-2313 (1998)). After 30 min on ice, cells were washed with phosphate buffered saline at pH 7.4 and incubated for 30 min with fluorescein-isothiocyanate (FITC)-conjugated antibodies then analyzed by flow cytometry on a FACScan Cytometer using CellQuest software (Becton Dickinson).
The concentration needed to achieve suppression of the interferon induced class I or class II surface expression was determined by testing different concentrations of the compounds (Table 18). Like all other assays, the order of effectiveness was compound 10>11>7 or 8>2>MMI>3.

[3] = system: Y box protein (TSEP-1) RNA; assay: Northern analysis of Y box protein (TSEP-1) RNA levels in FRTL-5 cells; assay type: cell-based, rat; details: 40 hours
From the text: Whereas γ-IFN decreases Y box protein RNA levels in FRTL-5 cells, MMI can reverse this action (FIG. 16). […] The rat TSEP-1 probe was the clone 31 insert, residues 5 to 1395 of the rat TSEP-1 nucleotide sequence reported (Ohmori, M., et al., ibid (1996)); rat β-actin was kindly provided by Dr. B. Paterson (NCI, Bethesda, Md.). Radiolabeling of all probes, hybridization (0.5-1.0×10^6cpm/ml), and washing were as described (Isozaki, O., et al., ibid (1989); Saji, M., et al., ibid (1992); Ohmori, M., et al., ibid (1996)).
The ability of the compounds to reverse the γ-IFN-induced decrease in TSEP-1 RNA levels is once again 10>11>7 or 8>2>MMI>3. This mimics data in all other assays.

[4] = 10 μM, 100 U/ml γ-interferon, 40 hours
[5] = 100 μM, 100 U/ml γ-interferon, 40 hours
[6] = 1.0 mM, 100 U/ml γ-interferon, 40 hours
[7] = 5 mM, 100 U/ml γ-interferon, 40 hours
[8] = 10 μM, 100 U/ml γ-interferon, 40 hours, read-out: % inhibition of IFN-increased p(−203)CAT class I promoter activity
[9] = 25 μM, 36 hours, read-out: % inhibition of basal p(−203)CAT class I promoter activity
[10] = 100 μM, 36 hours, read-out: % inhibition of basal p(−203)CAT class I promoter activity
[11] = 100 μM, 100 U/ml γ-interferon, 40 hours, read-out: % inhibition of IFN-increased p(−203)CAT class I promoter activity
[12] = 1.0 mM, 36 hours, read-out: % inhibition of basal p(−203)CAT class I promoter activity
[13] = 1.0 mM, 100 U/ml γ-interferon, 40 hours, read-out: % inhibition of IFN-increased p(−203)CAT class I promoter activity

SMILES	% inhibition of IFN-increased p(−203)CAT class I promoter activity [1, 4]	% inhibition of IFN-increased p(−203)CAT class I promoter activity [1, 5]	% inhibition of IFN-increased p(−203)CAT class I promoter activity [1, 6]	% inhibition of IFN-increased p(−203)CAT class I promoter activity [1, 7]	Concentration to inhibit IFN-increased antigen expression, Class I [2]	Y box protein (TSEP-1) RNA level, compound +γIFN ([3]; 100 μM compound + γIFN) [%]	Y box protein (TSEP-1) RNA level, compound ALONE ([3]; 100 μM compound alone) [%]	Y box protein (TSEP-1) RNA level, compound +γIFN ([3]; 1 mM compound + γIFN) [%]	Y box protein (TSEP-1) RNA level, compound ALONE ([3]; 1 mM compound alone) [%]	inhibition at 10 µM [1, 8] [%]	inhibition at 25 µM [1, 9] [%]	inhibition at 100 µM [1, 10] [%]	inhibition at 100 µM [1, 11] [%]	inhibition at 1000 µM [1, 12] [%]	inhibition at 1000 µM [1, 13] [%]	further results
Sc1ncc[nH]1 [Compound 3, 2-Mercaptoimidazole]	None	None	None	None	No Inhibition	42 ± 11	102 ± 7	42 ± 5	94 ± 6	–	–	–	–	–	–	Y box protein (TSEP-1) RNA level, compound +γIFN ([3]; 5 mM compound + γIFN): 47 ± 4%; Y box protein (TSEP-1) RNA level, compound ALONE ([3]; 5 mM compound alone): 100 ± 8%
CSc1nccn1C [Compound 7, S-Methylmethimazole]	–	–	–	–	424 ± 31 µM	83 ± 10	111 ± 16	133 ± 15	108 ± 4	0	0	10 ± 9	14 ± 11	51 ± 6	50 ± 13	inhibition at 5000 µM ([1]; 5 mM, 36 hours, read-out: % inhibition of basal p(−203)CAT class I promoter activity): 68 ± 8%; inhibition at 5000 µM ([1]; 5 mM, 100 U/ml γ-interferon, 40 hours, read-out: % inhibition of IFN-increased p(−203)CAT class I promoter activity): 58 ± 12%
Cn1ccn(C)c1=S [Compound 8, N-Methylmethimazole]	0%	38 ± 9%	69 ± 7%	77 ± 14%	356 ± 70 µM	77 ± 6	119 ± 13	148 ± 12	115 ± 5	–	–	–	–	–	–	% inhibition of basal p(−203)CAT class I promoter activity ([1]; 25 μM, 36 hours): 5 ± 5%; % inhibition of basal p(−203)CAT class I promoter activity ([1]; 100 μM, 36 hours): 48 ± 10%; % inhibition of basal p(−203)CAT class I promoter activity ([1]; 1.0 mM, 36 hours): 72 ± 6%; % inhibition of basal p(−203)CAT class I promoter activity ([1]; 5 mM, 36 hours): 87 ± 11%
Cn1c(-c2ccccc2)cnc1S [Compound 10, 5-Phenylmethimazole]	–	–	–	–	40 ± 10 µM	183 ± 12	124 ± 4	178 ± 10	122 ± 8	35 ± 10	45 ± 9	71 ± 6	81 ± 14	92 ± 12	90 ± 13	–

From patent US6365616B1, “Methimazole derivatives and tautomeric cyclic thiones to treat autoimmune diseases” (Sentron Medical, Inc., priority 1998, dated 2002)
